# Measurements taken from paper PMC9952466, “Characterization of Antioxidant and α-Glucosidase Inhibitory Compounds of Cratoxylum formosum ssp. pruniflorum and Optimization of Extraction Condition” (Antioxidants, 2023).
# System: not listed separately
# Test: antioxidant activity by DPPH radical scavenging
# Details: DPPH radical scavenging
# Protocol: (§1) The inhibitory effect on α-glucosidase was measured using α-glucosidase from Saccharomyces cerevisiae (EC 3.2.1.20). A test sample was mixed with 80 μL enzyme buffer and 10 μL α-glucosidase and incubated for 15 min at 37 °C. Then, after the addition of 10 μL p-nitrophenyl α-D-glucopyranoside solution for enzyme reaction, the amount of p-nitrophenol that was cleaved by the enzyme was determined by measuring the absorbance at 405 nm in a 96-well microplate reader. Acarbose was used as a positive control. The antioxidant activity was evaluated by measuring the DPPH radical scavenging activity using ascorbic acid as a positive control.
row,Compound,antioxidant activity (in words)
1,"CC(C)=CCc1c(O)c(O)c(C/C=C(\C)CCCC(C)(C)O)c2oc3ccc(O)cc3c(=O)c12 [Compound 16, pruniflonone A]",weak efficacy
2,"O=C(c1ccccc1)c1cc(O)c(O)c(OC2OC(CO)C(O)C(O)C2O)c1 (stereo not drawn) [Compound 19, pruniflonone B]",weak effect

# Same assay, conditions: at 50 μM
row,Compound,DPPH radical scavenging activity
1,"CC(C)=CCc1c(O)cc2oc3cc(O)c(O)c(CC=C(C)C)c3c(=O)c2c1O [Compound 6, γ-mangostin]",more than 50%
2,"COc1cc2c(=O)c3c(O)c(O)c(O)cc3oc2cc1O [Compound 17, caloxanthone E]",more than 50%
3,"O=c1c2cc(O)c(O)cc2oc2cc(O)c([C@@H]3O[C@H](CO)[C@@H](O)[C@H](O)[C@H]3O)c(O)c12 [Compound 18, mangiferin]",more than 50%
4,isocudraniaxanthone B [Compound 3],more than 50%

# System: α-glucosidase from Saccharomyces cerevisiae (EC 3.2.1.20)
# Test: α-glucosidase inhibitory effect (p-nitrophenyl α-D-glucopyranoside, absorbance 405 nm)
# Format: biochemical
# Details: not given
# Protocol: as §1
row,Compound,α-glucosidase inhibitory activity (in words)
1,"CC(C)=CCc1c(O)c(O)cc2c(=O)c3c(O)cc(O)cc3oc12 [Compound 1, cochinchinone F]",reduced the efficacy
2,"O=C(c1ccccc1)c1cc(O)c(O)c(OC2OC(CO)C(O)C(O)C2O)c1 (stereo not drawn) [Compound 19, pruniflonone B]",weak effect
3,"Oc1cc(O)c2c(c1)O[C@H](c1ccc(O)c(O)c1)[C@H](O)C2 [Compound 21, epicatechin]",good inhibition
